Like-named read-outs stand apart in the source and are kept apart here. Peptide text beside a SMILES is read from it.
Key:
[1] = tested on: HSV-1 KOS mutant hrR3; assay: Inactivation of pre-adsorbed virus (virus inactivation); assay type: cell-based
[2] = tested on: cornea; assay: In vivo peptide toxicity, cornea; set-up: species or system BALB/C mice; conditions: for blepharitis: four times a day for seven days
Description: (i) Cornea: Four-6-week-old female BALB/C mice (Harlan Sprague Dawley, Indianapolis, Ind.) were anesthetized by halothane inhalation (3-5%). A 2.0 μL drop of serum-free 5×DMEM solution containing 6.1 mM EB, 6.1 mM EBX, 7.5 mM TAT-C, 7.5 mM n50,51 TAT-C, 7.5 mM TAT-Cd, or 11.2 mM bHOMd or serum-free DMEM only (control) was then placed on the cornea and the mice were returned to their cages. Each group consisted of 5 mice, except for 11.2 mM bHOMd, and 7.5 mM TAT-Cd, which consisted of 4 mice. Only the right eye in each mouse received the peptide. Treatments were given 4 times per day at least 2 hrs apart for 7 days. On days 1, 5, and 7, the mice were examined microscopically for evidence of blepharitis, punctate keratopathy, dendrite ulceration and geographic ulceration. Damage to the corneal epithelium was assessed by staining with 1.0% […] and examination under a microscope with blue light. Blepharitis was scored: 1+ for noticeable puffy eyelids, 2+ for puffy eyelids with moderate crusting, 3+ for eye 50% swollen shut with severe crusting, and 4+ for eye totally swollen and crusted shut (Brandt et al., 1992). Punctate keratopathy, dendrite ulceration, and geographic ulceration were scored: 1+ for <25% of the cornea involved, 2+ for 25-50% involved, 3+ for 50-75% involved, and 4+ for >75% involved. The mean disease score for each group of mice on each day was calculated by the sum of disease scores in each group on each day divided by the numbers of mice in that group. On day 7, following the last treatment, the mice were sacrificed and the eyes were removed, fixed in 10% formalin, embedded in paraffin, sectioned (5μ each), and stained with hematoxylin and eosin as we have described previously (Brandt et al., 1996). Sections were then examined for evidence of damage to the cornea, sclera, lens, and retina.

[3] = tested on: HSV-1 KOS; assay: Plaque reduction assay; assay type: cell-based
Description: Cell culture and virus: The procedures for growing Vero cells and preparing high titer stocks of HSV-1 KOS as described in Grau et al., Invest. Ophthal. and Vis. Sci. 30: 2474 (1989) were utilized. Vero cells were maintained in carbonate-buffered DMEM supplemented with 5% calf serum and 5% fetal bovine serum (regular medium). For some studies, cells were switched to serum-free DMEM buffered with 25 mM HEPES (pH 7.4) and allowed to adapt to that medium for 30 min prior to experimental treatments. Vero cells were seeded into wells (0.28 cm^2) of microtiter plates either at 3.5×10^4 cells/well for use 1 day later (8×10^4 cells/well) or at 1×10^4 cells/well for use 3 days later (2×10^5 cells/well).
Plaque reduction assay: Confluent Vero cell cultures in microtiter plates were infected for 1 hour at 37° C. in 40 μL of medium. Except where indicated, peptide treatments in 40 μL of medium lasted from 1 hour before through 1 hour after infection. At the end of the adsorption period, the cultures were re-fed with 100 μL of regular medium. Plaque formation was scored 2 days later and the number of plaques scored per well was normalized to the number counted in the absence of peptide. Using an ocular micrometer, plaque size (π/2×L×S) was determined by measuring the largest plaque diameter (L) and the diameter at a 90° angle to that (S). The size of each of the first 40 scored plaques was measured except when a plaque included less than 10 rounded cells or touched the side of the well.

[4] = tested on: MDCK cells
[5] = in vitro; conditions: African green monkey
[6] = MTS assay; conditions: human, CEMx174 cells (T-B hybridoma)
[7] = MTS assay, eight cell lines; conditions: Vero, HeLa, CV-1PD, TM-1, DP-9, NIKS and W12E cells

| Compound | IC50 ([1]; 33° C., read-out: Inactivation of Pre-Adsorbed Virus 33° C. IC50) | IC50 ([1]; 33° C., read-out: Virus Inactivation IC50 (pre-adsorbed virus)) | IC50 ([1]; 33° C., read-out: virus inactivation IC50) | IC50 ([1]; 37° C., read-out: Inactivation of Pre-Adsorbed Virus 37° C. IC50) | blepharitis [2] | reduction of mean plaque size ([3]; 25 μM added 1 hour post-infection) | mean plaque size ([3]; 25 μM added 1 hour post-infection, untreated 66,000±6200) | combined mean plaque size after transient treatments ([3]; 6 and 12 μM, up to 1 hour post-infection) | fold lower concentration blocking infections compared to EBX ([3]; absence of serum, FIG. 1B) | IC50 ([3]; absence of serum, FIG. 1B, read-out: antiviral IC50 (plaque formation)) | fold lower concentration blocking infections compared to EBX ([3]; presence of serum (FIG. 1A)) | IC50 ([3]; present continuously after infection, read-out: inhibition of plaque expansion IC50) | IC50 ([3]; present continuously starting 1 hour post-infection, read-out: plaque number IC50) | IC50 ([3]; present during infection and 1 hour pre- and post-infection, read-out: plaque number IC50) | corneal pathology ([2]; mouse, in vivo) | cytotoxic effects (trypan blue staining) [4] | IC50 [5] | EC50 [6] | EC50 [7] |
| --- | --- | --- | --- | --- | --- | --- | --- | --- | --- | --- | --- | --- | --- | --- | --- | --- | --- | --- | --- |
| N=C(N)NCCC[C@H](NC(=O)CN)C(=O)N[C@@H](CCCCN)C(=O)N[C@@H](CCCCN)C(=O)N[C@@H](CCCNC(=N)N)C(=O)N[C@@H](CCCNC(=N)N)C(=O)N[C@@H](CCC(N)=O)C(=O)N[C@@H](CCCNC(=N)N)C(=O)N[C@@H](CCCNC(=N)N)C(=O)N[C@@H](CCCNC(=N)N)C(=O)N[C@@H](CS)C(=O)O [TAT-C, NH2-GRKKRRQRRRC-COOH] | 11 µM | 11 µM | 11 µM | 5.2 µM | mild blepharitis |  |  |  |  |  |  |  |  |  |  |  |  |  |  |
| CC(C)C[C@H](NC(=O)[C@H](C)NC(=O)[C@H](CC(C)C)NC(=O)[C@H](CC(C)C)NC(=O)[C@@H](NC(=O)[C@H](C)NC(=O)[C@@H]1CCCN1C(=O)[C@H](CC(C)C)NC(=O)[C@H](CC(C)C)NC(=O)[C@H](C)NC(=O)[C@@H](NC(=O)[C@H](C)NC(=O)[C@H](C)NC(=O)[C@H](CCCCN)NC(=O)[C@H](CCCCN)NC(=O)[C@H](CCCNC(=N)N)NC(=O)[C@@H](N)CCCNC(=N)N)C(C)C)C(C)C)C(=O)N[C@@H](CC(C)C)C(=O)N[C@@H](C)C(=O)N1CCC[C@H]1C(=O)O [EB] (H-RRKKAAVALLPAVLLALLAP-OH) |  |  |  |  | no effect | 70% | 6900±2600 μm^2 | 68,000±11,000 μm^2 | 100 fold | 0.7 µM | 10 fold | 12 µM | 24 µM | 5.5 µM | no evidence of corneal pathology | No cytotoxic effects | 68 µM | 50 µM | > 100 µM |

Source: US7432045B2 (priority 2003, dated 2008)
